# Measurements reported in ChEMBL document CHEMBL3885861, “Open TG-GATES”.
# Organism: Rattus norvegicus
# Assay: Open TG-GATES - Regimen: Daily Repeat
# Format: toxicity, organism-based, Sprague-Dawley
# Parameters: regimen Daily Repeat, gender Male, age 6 weeks
# Settings: in vivo, po, 6 mg/kg, route gavage, dose level Middle; for APTT / Bas / Eos / Fbg / Hb / Lym / MCH / MCHC / MCV / Mono / Neu / PT / Plat / RBC / Ret / WBC: tissue Blood; for KIDNEY_L / KIDNEY_R / KIDNEY_TOTAL: tissue Kidney; for LIVER: tissue Liver; for ALP / ALT / AST / BUN / CRE / Ca / Cl / DBIL / GLC / IP / K / LDH / Na / PL / RALB / TBIL / TC / TG / TP / gamma-GTP: tissue Plasma
compound,measurement,setting,value
OCCN1CCN(CCCN2c3ccccc3Sc3ccc(C(F)(F)F)cc32)CC1 [FLUPHENAZINE],TERMINAL_BW,"72 h, time 3 day",198.7 g
same,APTT,"72 h, time 3 day",15.9 s
same,Bas,"72 h, time 3 day",0%
same,Eos,"72 h, time 3 day",0.6%
same,Fbg,"72 h, time 3 day",227.2 mg/dL
same,Hb,"72 h, time 3 day",15.1 g/dL
same,Lym,"72 h, time 3 day",88.4%
same,MCH,"72 h, time 3 day",21.2 pg
same,MCHC,"72 h, time 3 day",33.3%
same,MCV,"72 h, time 3 day",63.7 fL
same,Mono,"72 h, time 3 day",5.8%
same,Neu,"72 h, time 3 day",5.2%
same,PT,"72 h, time 3 day",12.2 s
same,Plat,"72 h, time 3 day",119.2 x10_4/uL
same,RBC,"72 h, time 3 day",711.6 x10_4/ul
same,Ret,"72 h, time 3 day",3.4%
same,WBC,"72 h, time 3 day",119.1 x10_2/uL
same,KIDNEY_L,"72 h, time 3 day",0.9 g
same,KIDNEY_R,"72 h, time 3 day",0.9 g
same,KIDNEY_TOTAL,"72 h, time 3 day",1.8 g
same,LIVER,"72 h, time 3 day",9.5 g
same,ALP,"72 h, time 3 day",909.4 IU/L
same,ALT,"72 h, time 3 day",35 IU/L
same,AST,"72 h, time 3 day",58.6 IU/L
same,BUN,"72 h, time 3 day",24.8 mg/dL
same,CRE,"72 h, time 3 day",0.6 mg/dL
same,Ca,"72 h, time 3 day",10.8 mg/dL
same,Cl,"72 h, time 3 day",106.4 meq/L
same,DBIL,"72 h, time 3 day",0.008 mg/dL
same,GLC,"72 h, time 3 day",177.4 mg/dL
same,IP,"72 h, time 3 day",8 mg/dL
same,K,"72 h, time 3 day",4.6 meq/L
same,LDH,"72 h, time 3 day",84.6 IU/L
same,Na,"72 h, time 3 day",138.4 meq/L
same,PL,"72 h, time 3 day",186.6 mg/dL
same,RALB,"72 h, time 3 day",4.3 g/dL
same,TBIL,"72 h, time 3 day",0.2 mg/dL
same,TC,"72 h, time 3 day",98.4 mg/dL
same,TG,"72 h, time 3 day",112.6 mg/dL
same,TP,"72 h, time 3 day",6.1 g/dL
same,gamma-GTP,"72 h, time 3 day",0.6 IU/L
same,TERMINAL_BW,"[…], time 7 day",230.3 g
same,TERMINAL_BW,"[…], time 14 day",284.3 g
same,TERMINAL_BW,"[…], time 28 day",346.8 g
same,APTT,"[…], time 7 day",16.8 s
same,Bas,"[…], time 7 day",0%
same,Eos,"[…], time 7 day",0.6%
same,Fbg,"[…], time 7 day",224.2 mg/dL
same,Hb,"[…], time 7 day",14 g/dL
same,Lym,"[…], time 7 day",78.6%
same,MCH,"[…], time 7 day",21 pg
same,MCHC,"[…], time 7 day",33.3%
same,MCV,"[…], time 7 day",63.1 fL
same,Mono,"[…], time 7 day",5.6%
same,Neu,"[…], time 7 day",15.2%
same,PT,"[…], time 7 day",12.1 s
same,Plat,"[…], time 7 day",82.3 x10_4/uL
same,RBC,"[…], time 7 day",668.6 x10_4/ul
same,Ret,"[…], time 7 day",3.6%
same,WBC,"[…], time 7 day",95.8 x10_2/uL
same,APTT,"[…], time 14 day",15.9 s
same,Bas,"[…], time 14 day",0%
same,Eos,"[…], time 14 day",0.8%
same,Fbg,"[…], time 14 day",217.2 mg/dL
same,Hb,"[…], time 14 day",14.4 g/dL
same,Lym,"[…], time 14 day",79.6%
same,MCH,"[…], time 14 day",20.1 pg
same,MCHC,"[…], time 14 day",33.3%
same,MCV,"[…], time 14 day",60.5 fL
same,Mono,"[…], time 14 day",5.8%
same,Neu,"[…], time 14 day",14%
same,PT,"[…], time 14 day",12.1 s
same,Plat,"[…], time 14 day",97 x10_4/uL
same,RBC,"[…], time 14 day",716.4 x10_4/ul
same,Ret,"[…], time 14 day",3.6%
same,WBC,"[…], time 14 day",128.9 x10_2/uL
same,APTT,"[…], time 28 day",17.2 s
same,Bas,"[…], time 28 day",0%
same,Eos,"[…], time 28 day",1.2%
same,Fbg,"[…], time 28 day",209.2 mg/dL
same,Hb,"[…], time 28 day",15.6 g/dL
same,Lym,"[…], time 28 day",83%
same,MCH,"[…], time 28 day",19.7 pg
same,MCHC,"[…], time 28 day",33.4%
same,MCV,"[…], time 28 day",58.9 fL
same,Mono,"[…], time 28 day",5%
same,Neu,"[…], time 28 day",10.6%
same,PT,"[…], time 28 day",12.3 s
same,Plat,"[…], time 28 day",89.8 x10_4/uL
same,RBC,"[…], time 28 day",792.6 x10_4/ul
same,Ret,"[…], time 28 day",2.2%
same,WBC,"[…], time 28 day",134.3 x10_2/uL
same,KIDNEY_L,"[…], time 7 day",1 g
same,KIDNEY_R,"[…], time 7 day",1 g
same,KIDNEY_TOTAL,"[…], time 7 day",2 g
same,KIDNEY_L,"[…], time 14 day",1.1 g
same,KIDNEY_R,"[…], time 14 day",1.1 g
same,KIDNEY_TOTAL,"[…], time 14 day",2.3 g
same,KIDNEY_L,"[…], time 28 day",1.2 g
same,KIDNEY_R,"[…], time 28 day",1.2 g
same,KIDNEY_TOTAL,"[…], time 28 day",2.4 g
same,LIVER,"[…], time 7 day",10.9 g
same,LIVER,"[…], time 14 day",11.9 g
same,LIVER,"[…], time 28 day",13.7 g
same,ALP,"[…], time 7 day",836 IU/L
same,ALT,"[…], time 7 day",33 IU/L
same,AST,"[…], time 7 day",62.6 IU/L
same,BUN,"[…], time 7 day",18 mg/dL
same,CRE,"[…], time 7 day",0.5 mg/dL
same,Ca,"[…], time 7 day",10.5 mg/dL
same,Cl,"[…], time 7 day",105.2 meq/L
same,DBIL,"[…], time 7 day",0.012 mg/dL
same,GLC,"[…], time 7 day",170.6 mg/dL
same,IP,"[…], time 7 day",8.4 mg/dL
same,K,"[…], time 7 day",4.8 meq/L
same,LDH,"[…], time 7 day",79.4 IU/L
same,Na,"[…], time 7 day",137.4 meq/L
same,PL,"[…], time 7 day",178.8 mg/dL
same,RALB,"[…], time 7 day",4.1 g/dL
same,TBIL,"[…], time 7 day",0.3 mg/dL
same,TC,"[…], time 7 day",96.4 mg/dL
same,TG,"[…], time 7 day",106 mg/dL
same,TP,"[…], time 7 day",6 g/dL
same,gamma-GTP,"[…], time 7 day",1 IU/L
same,ALP,"[…], time 14 day",859.2 IU/L
same,ALT,"[…], time 14 day",29.4 IU/L
same,AST,"[…], time 14 day",63.2 IU/L
same,BUN,"[…], time 14 day",18 mg/dL
same,CRE,"[…], time 14 day",0.5 mg/dL
same,Ca,"[…], time 14 day",10.7 mg/dL
same,Cl,"[…], time 14 day",103.6 meq/L
same,DBIL,"[…], time 14 day",0 mg/dL
same,GLC,"[…], time 14 day",190.8 mg/dL
same,IP,"[…], time 14 day",7.8 mg/dL
same,K,"[…], time 14 day",4.6 meq/L
same,LDH,"[…], time 14 day",99.2 IU/L
same,Na,"[…], time 14 day",135.2 meq/L
same,PL,"[…], time 14 day",141 mg/dL
same,RALB,"[…], time 14 day",4.2 g/dL
same,TBIL,"[…], time 14 day",0.3 mg/dL
same,TC,"[…], time 14 day",68 mg/dL
same,TG,"[…], time 14 day",109.2 mg/dL
same,TP,"[…], time 14 day",5.9 g/dL
same,gamma-GTP,"[…], time 14 day",1.6 IU/L
same,ALP,"[…], time 28 day",483.8 IU/L
same,ALT,"[…], time 28 day",32.8 IU/L
same,AST,"[…], time 28 day",58.6 IU/L
same,BUN,"[…], time 28 day",21.4 mg/dL
same,CRE,"[…], time 28 day",0.6 mg/dL
same,Ca,"[…], time 28 day",10.7 mg/dL
same,Cl,"[…], time 28 day",107.6 meq/L
same,DBIL,"[…], time 28 day",0.006 mg/dL
same,GLC,"[…], time 28 day",175.2 mg/dL
same,IP,"[…], time 28 day",6.3 mg/dL
same,K,"[…], time 28 day",4.5 meq/L
same,LDH,"[…], time 28 day",75 IU/L
same,Na,"[…], time 28 day",140.4 meq/L
same,PL,"[…], time 28 day",147 mg/dL
same,RALB,"[…], time 28 day",4.2 g/dL
same,TBIL,"[…], time 28 day",0.3 mg/dL
same,TC,"[…], time 28 day",66.4 mg/dL
same,TG,"[…], time 28 day",138.8 mg/dL
same,TP,"[…], time 28 day",6.3 g/dL
same,gamma-GTP,"[…], time 28 day",1.6 IU/L
